Laboratory results from patent US10213445B2, “Compositions and methods of diazeniumdiolate-based prodrugs for treating cancer” (ARIZONA BOARD OF REGENTS ON BEHALF OF THE UNIVERSITY OF …, priority 2014, dated 2019).

What was measured:
[1] = system: E-cadherin in MDA-MB-231 cells; experiment: E-cadherin expression (RT-PCR, Western blot); assay type: cell-based, human; settings: 100 μM, 3, 6 or 12 h; for E-cadherin mRNA expression: RT-PCR; for E-cadherin protein level: Western blot
Experimental: The cells were treated with vehicle (black) or 100 μM IPA/NO-aspirin (blue) or DEA/NO-aspirin (green) for 3, 6 or 12 h at 37° C. Relative mRNA expression was measured using RT-PCR techniques. E-cadherin mRNA were quantified with respect to control (1).
The cells were treated with vehicle (black) or 100 μM IPA/NO-aspirin (blue) or DEA/NO-aspirin (green) for 3, 6 or 12 h at 37° C. Protein expression was measured using Western blot techniques. E-cadherin protein levels were quantified with respect to control (100%).
Epithelial cadherin (E-cadherin) is calcium-dependent, membrane-associated cellular adhesion glycoprotein. Loss of E-cadherin-mediated cellular adhesion is a prerequisite for invasion and metastasis of tumor cells. NO is an endogenous mediator of endothelial cell migration. […] However, the effect of HNO on metastasis has not been studied. […] This can result in a reversal of tumor cells from an invasive, mesenchymal, to a benign, epithelial phenotype.

[2] = Prodrug decomposition in cells; assay type: in vitro ADME; settings: A549 cells
[3] = Stability in phosphate buffer pH 7.4; assay type: physicochemical
Experimental: The newly synthesized HNO-releasing aspirin (IPA/NO-aspirin, 4) and NO-releasing aspirin (DEA/NO-aspirin, 8) were evaluated for the kinetic profile of NO and HNO release in buffer and cells.

HUVECs [4] = experiment: Cytotoxicity toward HUVECs; assay type: cell-based, human; settings: previously determined
HUVECs [5] = experiment: Tube formation (angiogenesis) in Matrigel; assay type: cell-based, human; settings: 12 hours, 1 and 10 μM, vs control
Experimental: Cells in Matrigel were treated with A) DMSO, B) 1 μM or C) 10 μM IPA/NO-aspirin, D) 1 μM or E) 10 μM DEA/NO-aspirin at 37° C., and the extent of tube formation was measured after 12 h using a microscope.
The impact of the NONO-aspirin prodrugs on tube formation in HUVECs after 12 hours treatment was examined as a measure of angiogenesis.

GAPDH in MCF-10A cells = biological target: T1, GAPDH in MCF-10A cells (Homo sapiens, UniProt P04406); experiment: GAPDH activity in cells; assay type: cell-based; settings: 0-100 μM, 1 h, 37° C.
T1 construct: host or cells: MDA-MB-231; MCF-10A
Experimental: (§1) The cells were treated with varied concentrations (0, 25, 50, 75, 100 μM) of IPA/NO-aspirin (blue) or DEA/NO-aspirin (green) for 1 h at 37° C. GAPDH activity was assessed by measuring fluorescence intensity at 570 nm. Data are plotted as mean±SD (n=3).
(§2) GAPDH is a critical glycolytic enzyme that can play an important role in cancer therapy as solid tumors often utilize glycolytic pathways even during normoxia to meet their energy requirements. Thus, inhibition of GAPDH can diminish ATP availability for tumor cells. GAPDH is also involved in initiation of apoptosis and in DNA repair.

[6] = biological target: T2, GAPDH in MDA-MB-231 cells (Homo sapiens, UniProt P04406); experiment: GAPDH activity in cells; assay type: cell-based; settings: MDA-MB-231, 0-100 μM, 1 h, 37° C.
T2 construct: host or cells: MDA-MB-231; MCF-10A
Experimental: as §1, §2

caspase-3 = experiment: Caspase-3 activity in breast cancer cells; assay type: cell-based, human; settings: MDA-MB-231, MDA-MB-468, MCF-7; 0-100 μM, 24 h, 37° C.
Experimental: The cells were treated with various concentrations (0, 25, 50, 100 μM) of IPA/NO-aspirin (blue) or DEA/NO-aspirin (green) for 24 h at 37° C. Caspase-3 activity was determined by recording the fluorescence ( ? 485 nm, ? 535 nm) of the product formed by cleavage of the substrate, N-Ac-DEVD-N′-MC-R11. Data are plotted as mean±SD (n=3).
Caspases are cysteine-aspartate proteases that can trigger apoptosis through a signaling cascade. Caspase-3 is an effector protease that has active cysteine residues that are susceptible to S-nitrosation. The impact of this modification has been variously reported to lead to reversible inhibition and to activation.

MDA-MB-231 cells = experiment: Oxidation of DCF (oxidant level) in cells; assay type: cell-based, human; settings: 100 μM, 37° C., MDA-MB-231 as representative example
Experimental: DCF loaded cells were treated with IPA/NO-aspirin (blue), DEA/NO-aspirin (green), IPA/NO (magenta), DEA/NO (brown), aspirin (red) or DMSO (0.1%; black) at 37° C., and the fluorescence at 535 nm was measured in a time-dependent manner. Data are plotted as mean±SD (n=4).

[7] = system: cleaved PARP in MDA-MB-231 cells; experiment: PARP cleavage by Western blot; assay type: cell-based, human; settings: 1-44 h, preliminary analysis
Experimental: The cells were treated with 50 μM IPA/NO-aspirin (blue) or 75 μM DEA/NO-aspirin (green), respectively at 37° C., and protein was collected at various time points (1-44 h). Lanes 1-6 (20 μg of protein): IPA/NO-aspirin at 1, 3, 6, 10, 20, 44 h; […]: DEA/NO-aspirin at 1, 6, 10, 20, 30, 44 h; Lane 15: control. Cleaved PARP levels at different time points were quantified by Western blot with respect to control, which was treated as 100%. HPRT was used as the loading control.
Since a number of chemotherapies and radiation therapy are based on inducing DNA damage in cancer cells, inhibition of PARP by HNO donors may increase the efficacy of these treatments. Furthermore, IPA/NO-aspirin is able to not only induce DNA damage but also to impede DNA repair.

lung carcinoma cells = settings: selective compared to normal endothelial cells, read-out: IC50 (proliferation); cited from earlier work

T1 sequence (P04406 whole entry): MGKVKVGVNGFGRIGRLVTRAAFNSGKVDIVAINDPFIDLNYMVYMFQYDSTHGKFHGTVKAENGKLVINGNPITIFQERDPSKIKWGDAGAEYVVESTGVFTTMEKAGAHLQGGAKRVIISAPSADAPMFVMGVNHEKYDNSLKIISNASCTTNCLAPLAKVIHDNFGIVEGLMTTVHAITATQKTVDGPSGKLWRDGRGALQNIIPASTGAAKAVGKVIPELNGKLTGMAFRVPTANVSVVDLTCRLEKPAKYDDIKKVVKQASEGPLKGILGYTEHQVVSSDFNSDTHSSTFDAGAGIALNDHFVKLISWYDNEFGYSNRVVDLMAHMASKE
T2 sequence (P04406 whole entry): as above

Compound | E-cadherin mRNA expression [1] | E-cadherin protein level [1] | lifetime in cells relative to IPA/NO-aspirin [2] | stability in buffer [3] | cytotoxicity toward HUVECs (HUVECs [4]) | angiogenesis (tube formation) (HUVECs [5]) | GAPDH activity (GAPDH in MCF-10A cells) | GAPDH activity [6] | caspase-3 activity (caspase-3) | oxidation of DCF (fluorescence intensity) (MDA-MB-231 cells) | level of cleaved PARP ([7]; 75 μM) | IC50 (lung carcinoma cells) | time to complete decomposition in cells [2] | level of cleaved PARP ([7]; 50 μM)
CCN(CC)[N+]([O-])=NOCOC(=O)c1ccccc1OC(C)=O [DEA/NO-aspirin, O2-(Acetylsalicyloyloxymethyl)-1-(N,N-Diethylamino)-diazen-1-ium-1,2-diolate] | did increase E-cadherin expression in a time-dependent manner | did increase E-cadherin expression in a time-dependent manner | about three times longer-lived | relatively stable in phosphate buffer pH 7.4 for several hours | neither IPA/NO-aspirin or DEA/NO-aspirin are appreciably cytotoxic | reduced angiogenesis | not inhibitory in either cell line | not inhibitory in either cell line | more modest in MDA-MB-231 and MCF7 cells | minimal impact | relatively short-lived | 100 µM | – | –
CC(=O)Oc1ccccc1C(=O)OCON=[N+]([O-])NC(C)C [IPA/NO-aspirin, O2-(Acetylsalicyloyloxymethyl)-1-(N-isopropylamino)-diazen-1-ium-1,2-diolate] | does not show any significant change | does not show any significant change | – | relatively stable in phosphate buffer pH 7.4 for several hours | neither IPA/NO-aspirin or DEA/NO-aspirin are appreciably cytotoxic | reduced angiogenesis | did not affect GAPDH activity | inhibited GAPDH activity in a concentration (FIG. 9A) and time-dependent-manner | activated caspase-3 in all three breast cancer lines | significant increase in fluorescence intensity | – | 100 µM | approximately 3 hours | increases the level of cleaved PARP in a longer-term fashion
